# Measurements reported in PubChem BioAssay AID1033 (Sanford-Burnham Center for Chemical Genomics, 2008).
# Active and inactive are the calls of the source. The rule behind the calls is not given here. Residues, ends and D or L forms follow the SMILES beside them.
# Target: Chaperone protein DnaK (Escherichia coli (strain K12)) (UniProt P0A6Y8)
# Test: E. coli DnaK SBD ligand binding – biophysical, NMR, chaperone (AID 1033)
# Settings: Purified DnaK SBD
# Chaperone protein DnaK (Escherichia coli (strain K12)), sequence (P0A6Y8 whole entry, looked up): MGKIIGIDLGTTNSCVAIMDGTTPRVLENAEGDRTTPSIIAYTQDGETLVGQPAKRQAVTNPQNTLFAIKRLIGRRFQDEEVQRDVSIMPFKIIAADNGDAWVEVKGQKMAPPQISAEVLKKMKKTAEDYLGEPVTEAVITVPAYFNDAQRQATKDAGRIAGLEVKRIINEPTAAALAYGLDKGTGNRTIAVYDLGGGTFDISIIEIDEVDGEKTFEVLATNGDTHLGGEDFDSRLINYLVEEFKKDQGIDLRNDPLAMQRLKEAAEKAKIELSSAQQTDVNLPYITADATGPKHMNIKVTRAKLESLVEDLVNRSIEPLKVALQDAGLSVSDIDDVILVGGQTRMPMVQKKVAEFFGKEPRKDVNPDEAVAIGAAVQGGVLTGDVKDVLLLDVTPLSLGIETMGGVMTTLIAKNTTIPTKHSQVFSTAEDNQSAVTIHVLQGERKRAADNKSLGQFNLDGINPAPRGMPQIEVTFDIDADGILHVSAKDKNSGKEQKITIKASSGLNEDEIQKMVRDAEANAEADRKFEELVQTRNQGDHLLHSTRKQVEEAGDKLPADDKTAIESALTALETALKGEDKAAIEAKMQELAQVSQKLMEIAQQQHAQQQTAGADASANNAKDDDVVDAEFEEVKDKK
row,Compound,Kd
1,O=C(O)c1cccc(N2C(=O)C3CC=CCC3C2=O)c1 (stereo not given),> 4 mM (inactive)
2,CC12CN(CC#N)CC(C)(CN(CC#N)C1)C2=O,> 4 mM (inactive)
3,O=C(Nc1ccc(O)cc1)N1CCOCC1,> 4 mM (inactive)
4,COc1cc(C(=S)N2CCOCC2)ccc1O,> 4 mM (inactive)
5,C1CCN2C[C@@H]3C[C@H](CN4CCCC[C@@H]34)[C@H]2C1,> 4 mM (inactive)
6,Nc1n[nH]c(=S)n1-c1ccccc1,> 4 mM (inactive)
7,CC1CCC(N2CCN(c3ncccn3)CC2)CC1 (stereo not given),> 4 mM (inactive)
8,CC(=O)c1cc2c(s1)SCC(=O)N2,> 4 mM (inactive)
9,O=C(Nc1ccon1)c1sc2cc(F)ccc2c1Cl,> 4 mM (inactive)
10,NC(=O)c1ccc(C(N)=O)c(-c2ccccc2)c1,> 4 mM (inactive)
11,CNC(=O)Oc1ccc2c(c1)[C@]1(C)CCN(C)[C@@H]1N2C,> 4 mM (inactive)
12,COC(=O)CC1=Nc2ccccc2NC(=O)C1,> 4 mM (inactive)
13,O=C1CCCC2C3CC(CN12)[C@@H]1CCCCN1C3 (stereo not given in full),> 4 mM (inactive)
14,Cc1noc(C)c1C(=O)Nc1sc(C)c(C)c1C#N,> 4 mM (inactive)
15,COc1cccc(C(=O)Nc2c(C)n[nH]c2C)c1,> 4 mM (inactive)
16,CN1C(=O)Cc2cc(S(N)(=O)=O)ccc21,> 4 mM (inactive)
17,Cc1cc(N2CCCC2=O)c(N)cc1N,> 4 mM (inactive)
18,c1cncc(C(N2CCOCC2)N2CCOCC2)c1,> 4 mM (inactive)
19,COc1ccc(N/C(N)=N\c2nc(C)cc(C)n2)cc1,> 4 mM (inactive)
20,O=S1(=O)CCC2CC=CCC21 (stereo not given),> 4 mM (inactive)

row,Compound,Kd
1,O=C(NN1C(=O)CSC1=S)c1ccccc1,> 4 mM (inactive)
2,Cn1cnnc1SCC(=O)Nc1nccs1,> 4 mM (inactive)
3,CC(=O)Nc1cccc(-c2n[nH]c(=S)n2C)c1,> 4 mM (inactive)
4,C=CCCCCCCCCCCCc1ccco1,> 4 mM (inactive)
5,Nc1ccccc1OC(F)(F)F,> 4 mM (inactive)
6,Cc1cc2cc(N)ccc2[nH]1,> 4 mM (inactive)
7,CC(=O)NC(=S)Nc1ccccc1N1CCOCC1,> 4 mM (inactive)
8,O=C(O)C1CC(=O)N(CCc2ccc(Cl)cc2)C1 (stereo not given),> 4 mM (inactive)
9,c1ccc2[nH]c(CCn3cncn3)nc2c1,> 4 mM (inactive)
10,Cc1ccc(-c2nc(-c3cccnc3)no2)cc1,> 4 mM (inactive)
11,CC(=O)N[C@@H](CC(=O)O)C(=O)N[C@@H](CCC(=O)O)C(=O)O (Ac-Asp-Glu-OH),> 4 mM (inactive)
12,NC(=O)CSc1nc2[nH]ncc2c(=O)[nH]1,> 4 mM (inactive)
13,O=C(C1CCCCC1)N1CCN(c2ccccc2F)CC1,> 4 mM (inactive)
14,CC(=O)Oc1ccc(N2C(=O)C3C4C=CC(O4)C3C2=O)cc1 (stereo not given),> 4 mM (inactive)
15,C/C(=N\NC(N)=S)C(=O)O,> 4 mM (inactive)
16,O=c1[nH]cc(N=Cc2ccc(F)cc2)c(=O)[nH]1,> 4 mM (inactive)
17,Nc1cccc(C(=O)c2ccccc2)c1,> 4 mM (inactive)
18,CC(=O)Nc1ccc(S(N)(=O)=O)cc1,> 4 mM (inactive)
19,O=C(CSc1ccnc(=O)[nH]1)NCc1ccco1,> 4 mM (inactive)
20,O=C(Nn1cnnc1)c1cc2c(s1)CCCCC2,> 4 mM (inactive)

row,Compound,Kd
1,Cc1cc(NC(=O)c2ocnc2C)no1,> 4 mM (inactive)
2,O=C(O)c1ccc2ncccc2c1,> 4 mM (inactive)
3,CNC(=O)Nc1ccc(C(=O)NC)cc1,> 4 mM (inactive)
4,Oc1cccc2[nH]ccc12,> 4 mM (inactive)
5,O=C1C2C3C=CC(C3)C2C(=O)N1c1ccccn1 (stereo not given),> 4 mM (inactive)
6,Cc1ccnc(NS(=O)(=O)c2ccccc2)n1,> 4 mM (inactive)
7,Cc1nnc(Nc2ccc(S(N)(=O)=O)cc2)[nH]c1=O,> 4 mM (inactive)
8,Nc1nc(SCc2ccc3c(c2)OCO3)n[nH]1,> 4 mM (inactive)
9,NC(=O)NC1C=CS(=O)(=O)C1 (stereo not given),> 4 mM (inactive)
10,COc1cc2[nH]c(=S)n(C)c(=O)c2cc1OC,> 4 mM (inactive)
11,O=C(CNC(=O)c1cccs1)NC1=NCCS1,> 4 mM (inactive)
12,NCc1cc2ccccc2s1,> 4 mM (inactive)
13,Cc1ccc(NC(=O)CN2C(=O)CSC2=O)cc1,> 4 mM (inactive)
14,Nc1ccnc(C(=O)O)c1,> 4 mM (inactive)
15,C[C@@H]1O[C@@H](O[C@H]2CC[C@]3(C=O)C4CC[C@]5(C)[C@@H](C6=CC(=O)OC6)CC[C@]5(O)C4CC[C@]3(O)C2)[C@H](O)[C@H](O)[C@H]1O (stereo not given in full),> 4 mM (inactive)
16,Cc1ccnc(NS(=O)(=O)c2cccs2)c1,> 4 mM (inactive)
17,CCCCn1c(S(=O)(=O)O)nc2ccccc21,> 4 mM (inactive)
18,Cc1nc(-c2ccccc2)sc1CO,> 4 mM (inactive)
19,Nc1cccc(S(=O)(=O)N2CCOCC2)c1,> 4 mM (inactive)
20,COC(=O)/C(C)=C\CC12OC(C)(C)C3CC(C=C4C(=O)c5c(OC)c6c(c(CC=C(C)C)c5OC431)OC(C)(CCC=C(C)C)C=C6)C2=O (stereo not given),> 4 mM (inactive)
